How the values were obtained:
MDA435/LCC6 MDR cells = assay: cells
Ld39 amastigotes = assay: Total antimony (SSG) accumulation assay using ICP-MS; assay type: cell-based, Leishmania donovani; conditions: 3 hr
Description: (§1) Amastigotes of L. donovani was prepared by spinning down 50 mL 4-day-old promastigotes (late log phase), and transferred to an axenic medium containing M199 Medium (Gibco), 0.5% Trypto casein soya, 3 mM L-cysteine, 15 mM D-glucose, 5 mM L-glutamine, 4 mM NaHCO3, 25 mM HEPES, 0.01 mM bathocuproine-disulfonic acid and 0.023 mM Hemin. Cells were then incubated at 37° C. for 24 hr. Amastigotes became ovoid in shape and were ready for drug accumulation assay.
(§2) The effect of flavonoid dimers on accumulation of antimony sodium stibogluconate (SSG) was investigated. Amastigotes are more susceptible to SSG and therefore accumulate more SSG as compared to promastigotes. Therefore, amastigotes were chosen for studying the Sb accumulation assay. […] After 3 hour incubation, the parasites were washed thrice with cold PBS, pH 7.4. The cell pellet was dissolved in 200 μL concentrated nitric acid for 24 hr at room temperature. The sample was diluted to 3 mL with distilled water, resulting in a final concentration of about 5 ppb of total Sb solution. It was then injected to ICP-MS (Perkin-Elmer) for quantitation. Antimony was measured at its m/z ratios of 121 and 123 with indium (In, m/z=115) as an internal standard. All chemicals used for the pretreatment of the samples were of at least analytical grade and the distilled water used directly as received without further purification.

LdAG83 amastigotes = assay: as above; assay type: cell-based, Leishmania donovani; conditions: 9d 30 μM or 60 μM
Description: as §1, §2

Ld2001 amastigotes = assay: as above; assay type: cell-based, Leishmania donovani; conditions: 3 hr
Description: as §1, §2

[1] = system: wild type L. enriettii (Le); assay: Leishmania cell viability (MTS) assay; assay type: cell-based, Leishmania enriettii; conditions: Le wild type
Description: Cell lines and Cell Culture. Promastigotes of Leishmania enriettii (LePentR50, Le wild type, LeMDR1 −/− and LeMDR1-overexpressed LeV160 mutants) and Leishmania donovani (LdAG83, Ld2001 and Ld39) were employed in this study. The former is a natural infective strain of guinea pig and the latter is a clinical strain, which may cause visceral leishmaniasis in human. Both strains were cultured in Schneider's Drosophila Medium (Invitrogen), pH 6.9 supplemented with 10% (v/v) heat inactivated fetal calf serum (Hyclone) with 4 mM glutamine (Sigma) and 25 μg/mL gentamicin solution (Invitrogen), at 27° C. for 4 days (Cloning and functional analysis of an extrachromosomally amplified multidrug resistance-like gene in Leishmania enriettii. Mol. Biochem. Parasitol 1993, 60, 195-208).
Promastigotes of LeV160 were culture in the presence of 160 μg/mL vinblastine. No pentamidine and vinblastine (Sigma) was added to the Le wild type and LeMDR1 −/− mutant.
The viability of promastigotes was determined by the Cell Titer 96® Aqueous Assay (Promega) that employs a tetrazolium compound (MTS) and electron coupling reagent, phenazine methosulfate (PMS). Promastigotes were seeded into 96-well flat bottom microtiter plate at 1×10^5 cells per well in a final volume of 100 μL medium. To determine the cytotoxic effects of flavonoid dimers to the parasites, various concentrations of flavonoid dimers were added to the promastigotes. To determine the reversal effects of flavonoid dimers with different spacer lengths, various concentrations of antileishmanial drugs, one of pentamidine or SSG, vinblastine and puromycin was added to the wells with or without flavonoid dimers. The parasites were incubated at 27° C. for 72 hrs. Each concentration of antileishmanials with or without the flavonoid dimers was tested in triplicates in each experiment. A 2 mg/mL MTS and 0.92 mg/mL PMS were mixed at a ratio of 20:1 (MTS: PMS). […] After 4 hrs of incubation, the OD values were determined at 490 nm using automatic microtiter plate reader (Bio-Rad).

[2] = MDA435/LCC6 MDR, 5 μM dimer, FIG. 5

## O=c1cc(-c2ccc(OCCOCCOCCOCCOc3ccc(-c4cc(=O)c5c(O)cc(O)cc5o4)cc3)cc2)oc2cc(O)cc(O)c12 [Compound 9d, 1,13-Bis[4′-((5,7-dihydroxy)-4H-chromen-4-on-2-yl)phenyl]-1,4,7,10,13-pentaoxamidecane]
MDA435/LCC6 MDR cells; LCC6 MDR, daunorubicin + 5 μM 9d
  RF, daunorubicin (IC50 without modulator / IC50 with modulator): 7.6
MDA435/LCC6 MDR cells; LCC6 MDR, doxorubicin + 5 μM 9d or VP
  RF, doxorubicin (IC50 without modulator / IC50 with modulator): 9
MDA435/LCC6 MDR cells; LCC6 MDR, mitoxantrone + 5 μM 9d
  RF, mitoxantrone (IC50 without modulator / IC50 with modulator): 2.2
MDA435/LCC6 MDR cells; LCC6 MDR, taxol + 5 μM 9d or VP
  RF, taxol (IC50 without modulator / IC50 with modulator): 22
MDA435/LCC6 MDR cells; LCC6 MDR, vinblastine + 5 μM 9d or VP
  RF, vinblastine (IC50 without modulator / IC50 with modulator): 10
MDA435/LCC6 MDR cells; LCC6 MDR, vincristine + 5 μM 9d
  RF, vincristine (IC50 without modulator / IC50 with modulator): 41
MDA435/LCC6 MDR cells; MDA435/LCC6 MDR, 5 μM 9d, FIG. 6A to 6E
  reversal of resistance to vinblastine, taxol, doxorubicin, vincristine, daunorubicin: to a level close to the parental
MDA435/LCC6 MDR cells; MDA435/LCC6 MDR, 5 μM 9d, FIG. 6F
  effect on mitoxantrone resistance: No effect
MDA435/LCC6 MDR cells; [2]
  IC60 of doxorubicin with modulator: 730 nM
  reduction of IC60 of doxorubicin, RF: about 6 RF
MDA435/LCC6 MDR cells; MDA435/LCC6 MDR, FIG. 3B
  concentration reaching the plateau of taxol reversing activity: 5 µM
Ld39 amastigotes; 30 μM 9d
  SSG accumulation, % of that of LdAG83: 74%
Ld39 amastigotes; 60 μM 9d
  SSG accumulation, % of that of LdAG83: 90%
LdAG83 amastigotes
  accumulation of SSG versus cells without treatment: did not significantly differ
Ld2001 amastigotes; 30 μM 9d
  SSG accumulation, % of that of LdAG83: 83%
Ld2001 amastigotes; 60 μM 9d
  SSG accumulation, % of that of LdAG83: 69%
[1]
  decrease of IC50 of pentamidine: about 3 fold

— patent US8710097B2, “Flavonoid dimers and methods of making and using such” (The Hong Kong Polytechnic University, priority 2006, dated 2014)
